In data set [1] the test system is several pathogenic bacteria. The data set can be described thus: Radial diffusion assay and MIC screening for antimicrobial activity. It is filed as cell-based. As to conditions: radial diffusion assay and MIC determinations. As for the experimental part: Methods: Log-phase bacteria were cultivated for up to 18 hours in TSB (TSB, Becton Dickinson, USA), washed and diluted to 4×10^6 CFU in 10 ml agar. Bacteria were incubated in 10 ml of 10 mM sodium phosphate, pH 7.4, containing 0.3 mg/ml of TSB powder and 1% (w/v) low EEO-agarose (AppliChem). Lipopeptides were pipetted into punched wells and diffused into the gel for 3 hours at 37° C. After that, a nutrient-rich gel with 6% TSB (w/v) and 1% agarose in 10 mM sodium phosphate buffer was poured on top of the first gel and incubated for up to 24 hours at 37° C. Then the diameter of inhibition zones was measured.
Clinical isolates of A. baumannii DSM30007, E. faecium DSM2918, K. pneumoniae DSM30104 and P. aeruginosa DSM1117 were provided by the Department for Laboratory Medicine at Robert-Bosch-Hospital Stuttgart, Germany. C. rodentium DSM16636 and E. coli DSM8695 were obtained from the Deutsche Sammlung von Mikroorganismen and Zellkultur GmbH Braunschweig, Germany. […]

The subject of data set [2] is C. albicans. Nature of the data set: Broth microdilution assay, antifungal activity. It is filed as cell-based. On the procedure:
(§1) Methods: Broth microdilution assay. Candida was cultured in TSB over night at 37° C., centrifuged (1500 rpm, 10 min, RT) and washed twice with 10 mM sodium phosphate buffer containing 1% (w/v) TSB. Candida cells were counted and approximately 5×10^5 CFU/ml fungi were incubated with serial peptide concentrations (1.17-150 μM) in a final volume of 100 μl in 10 mM sodium phosphate buffer containing 1% (w/v) TSB for 2 hours at 37° C. After incubation, 100 μl of 6% TSB (w/v) was added and absorbance was measured at 600 nm (Tecan, Switzerland) and monitored for 18 hours. Afterwards, 100 μl per well was plated on YPD agar to determine the number of viable bacteria microbiologically.
(In general: In broth dilution the organism is exposed to a series of concentrations in liquid medium.)

For data set [3], the system named is C. tropicalis. Nature of the data set: Broth microdilution assay, antifungal activity. Type of data set: cell-based. On the procedure: as §1
Data set [4] is described as follows: Cellular toxicity, lactate dehydrogenase (LDH) assay. It is filed as cell-based. As for the experimental part:
Methods: Cellular toxicity was determined by Lactate dehydrogenase concentration and WST-1 cell proliferation assay as well as hemolysis assay.

Data set [5] in a line: Acute tolerability after oral administration. It is filed as in vivo, C57BL/6N mice. From the text:
Methods: C57BL/6N mice were generated and maintained (including breeding and housing) at the animal facilities of the Helmholtz Centre for Infection Research (HZI) under enhanced specific pathogen-free (SPF) conditions (Stehr et al., 2009). Animals used in the experiments were gender and age matched. Female and male mice with an age of 8-12 weeks were used. Sterilized food and water ad libitum were provided. Mice were kept under a strict 12-hour light cycle (lights on at 7:00 am and off at […]) and housed in groups of two to six mice per cage. All mice were euthanized by asphyxiation with CO2 and cervical dislocation. All animal experiments were performed in agreement with the local government of Lower Saxony, Germany (approved permission No. 33.19-42502-04-18/2499).
Age- and gender-matched mice received two doses of peptides (0, 125 μg or 250 μg) solved in 100 μl PBS orally per day. Bodyweight and appearance were recorded. The following day, mice were sacrificed and stomach, kidney, spleen, liver, small intestine, cecum and colon were removed for histological scoring. Around 1 ml of blood was taken from the heart to measure inflammatory markers including creatinine in the kidney and the enzyme levels of glutamate-oxalacetate-transaminase (GOT) in the liver.

Regarding Pam2-Glc-Suc-RGKAKCCK [Pam-1], the “antimicrobial activity, inhibition of bacterial growth of the tested strains” value in data set [1] was “generally inactive”. The “antifungal activity against C. albicans” value in data set [2] is on record as “no antifungal activity”. In addition, in data set [3], the “antifungal activity against C. tropicalis” value is given as “no antifungal activity”. In addition, the “LDH activity (cytotoxicity)” value in data set [4] is on record as “no LDH activity”. In data set [5] (mouse, in vivo, po), the “histological examination of gastrointestinal, liver and kidney tissues” value is “no alterations”; the “serum level of creatinine” value is reported as “no significant differences between the groups”; the “serum level of glutamic oxaloacetic transaminase (GOT)” value is given as “no significant differences between the groups”. In data set [5] (oral, mice, 24 hours after application, 125 or 250 μg doses), the “acute toxicity (histological analysis and serum markers)” value is “did not reveal any acute toxicity”.

The record behind these values is patent US20230365639A1, “DEFENSIN FRAGMENT DERIVED LIPOPEPTIDES FOR TREATMENT OF DRUG-RESISTANT MICROORGANISMS” (priority 2020, published 2023).
